Reference: patent EP1179050B1, “METHOD FOR THE PURIFICATION OF PROTEIN KINASE BY AFFINITY CHROMATOGRAPHY” (University of Tartu, priority 1999, dated 2000)
Read-outs that look alike come from different tables or passages of the source. *1 amine or outer side, *2 acyl side, *3 side chain or, on linkers, in order; H or OH if unused. Where a SMILES comes first, the peptide text is derived from it. [ ]: non-standard residue; d: D form. The star is where a group is joined. Adenosine(5'-uronoyl) = Nc1ncnc2c1ncn2[C@@H]1O[C@H](C(=O)*)[C@@H](O)[C@H]1O; X1 = Nc1ncnc2c1ncn2[C@@H]1O[C@H](C(=O)NC[C@H](N)C(=O)*)[C@@H](O)[C@H]1O; βAsp = O=C(O)[C@H](CC(=O)[*:2])N[*:1]; Dap = NC[C@H](N)C(=O)O

What was measured:
[1] = molecular target: catalytic subunit of murine PKA (Mus musculus, UniProt P05132); assay: Protein kinase A (PKA) activity inhibition, [γ-32P]ATP phosphocellulose paper assay; type: biochemical
protein kinase CK2 = protein kinase CK2 (Rattus norvegicus, UniProt P19139); assay: Protein kinase CK2 activity inhibition, casein substrate, [γ-32P]ATP phosphocellulose paper assay; type: biochemical; conditions: 30°C, pH 7.5, 1 mg/mL casein, 30 µM [γ-32P] ATP; n. i. means no inhibition at 100 µM concentration of ligand
Sequence of protein kinase CK2 (P19139 whole entry): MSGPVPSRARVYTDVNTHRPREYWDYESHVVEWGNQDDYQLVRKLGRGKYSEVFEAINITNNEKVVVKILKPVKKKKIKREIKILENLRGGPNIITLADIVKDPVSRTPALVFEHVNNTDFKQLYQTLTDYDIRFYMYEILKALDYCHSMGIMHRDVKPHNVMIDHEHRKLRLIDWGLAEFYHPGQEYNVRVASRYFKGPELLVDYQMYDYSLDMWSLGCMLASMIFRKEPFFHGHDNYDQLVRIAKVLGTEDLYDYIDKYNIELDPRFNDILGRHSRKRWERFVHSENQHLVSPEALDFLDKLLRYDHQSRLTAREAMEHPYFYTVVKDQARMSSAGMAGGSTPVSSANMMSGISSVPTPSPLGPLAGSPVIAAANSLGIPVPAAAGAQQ

PKA = PKA (Mus musculus, UniProt P05132); conditions: literature values; read-out: Kd (affinity to PKA); cited from earlier work
Protein Kinase A [2] = molecular target: T1, Protein Kinase A (Mus musculus, UniProt P05132); assay: Inhibition constant for PKA (Table 3); type: biochemical
[3] = molecular target: Ca^2+-dependent protein kinase (CDPK-1); assay: Ca2+-dependent protein kinase (CDPK-1) activity inhibition, [γ-32P]ATP phosphocellulose paper assay; type: biochemical, maize; conditions: 30°C, pH 7.5, 50 µM substrate peptide, 30 µM [γ-32P]ATP
protein kinase CK1 = assay: Protein kinase CK1 activity inhibition, casein substrate, [γ-32P]ATP phosphocellulose paper assay; type: biochemical, rat; conditions: 30°C, pH 7.5, 1 mg/mL casein, 30 µM [γ-32P] ATP
[4] = molecular target: Protein kinase C β isoform (PKC); assay: Protein kinase C β (PKC) activity inhibition, [γ-32P]ATP phosphocellulose paper assay; type: biochemical, pig; conditions: 30°C, pH 7.5, 15 µM substrate peptide, 30 µM [γ-32P] ATP
Protein Kinase C = assay: Inhibition constant for PKC (Table 3); type: biochemical
Protein Kinase A [5] = molecular target: T1, Protein Kinase A; assay: Inhibition constant for PKA (Table 3); type: biochemical; remark: listed apart in the source

Question: What does the source list for N=C(N)NCCC[C@H](NC(=O)[C@H](CCCNC(=N)N)NC(=O)[C@H](CCCNC(=N)N)NC(=O)[C@H](CCCNC(=N)N)NC(=O)[C@H](CCCNC(=N)N)NC(=O)[C@H](CCCNC(=N)N)NC(=O)CCNC(=O)[C@H]1O[C@@H](n2cnc3c(N)ncnc32)[C@H](O)[C@@H]1O)C(=O)O [Inhibitor V, AdoC(β-Ala)Arg6]?
Answer: IC50 [1]: 1.8 ± 0.1 µM; IC50 (µM) CK2 (protein kinase CK2): n. i.^f)

Question: For Nc1ncnc2nc[nH]c12 [adenine], which Kd (PKA) is on record?
Answer: 30 µM

Question: With N=C(N)NCCC[C@H](NC(=O)[C@H](CCCNC(=N)N)NC(=O)[C@H](CCCNC(=N)N)NC(=O)[C@H](CCCNC(=N)N)NC(=O)[C@H](CCCNC(=N)N)NC(=O)[C@H](CCCNC(=N)N)NC(=O)CCCCCCCNC(=O)[C@H]1O[C@@H](n2cnc3c(N)ncnc32)[C@H](O)[C@@H]1O)C(=O)O [Inhibitor VIII, AdoC(Aoc)Arg6] as the compound, how does the IC50 [1] read?
Answer: 0.24 ± 0.02 µM

Question: What about the IC50 (protein kinase CK2) of the same compound?
Answer: > 30 µM

Question: With N=C(N)NCCC[C@H](NC(=O)[C@H](CCCNC(=N)N)NC(=O)[C@H](CCCNC(=N)N)NC(=O)[C@H](CCCNC(=N)N)NC(=O)[C@H](CCCNC(=N)N)NC(=O)[C@H](CCCNC(=N)N)NC(=O)CNC(=O)[C@H]1O[C@@H](n2cnc3c(N)ncnc32)[C@H](O)[C@@H]1O)C(=O)O [Inhibitor IV, AdoCGlyArg6] as the compound, how does the IC50 [1] read?
Answer: 4 ± 0.2 µM

Question: What about the IC50 (protein kinase CK2) of the same compound?
Answer: > 30 µM

Question: Which Kd (PKA) does the source give for Nc1ncnc2c1ncn2[C@@H]1O[C@H](COP(=O)(O)OP(=O)(O)OP(=O)(O)O)[C@@H](O)[C@H]1O [ATP, adenosine triphosphate] here?
Answer: 25 µM

Question: Which IC50 [1] does the source give for C[C@H](NC(=O)CCNC(=O)CCNC(=O)[C@H]1O[C@@H](n2cnc3c(N)ncnc32)[C@H](O)[C@@H]1O)C(=O)N[C@@H](CCCNC(=N)N)C(=O)N[C@@H](CCCNC(=N)N)C(=O)N[C@@H](CCCNC(=N)N)C(=O)N[C@@H](CCCNC(=N)N)C(=O)N[C@@H](CCCNC(=N)N)C(=O)N[C@@H](CCCNC(=N)N)C(=O)O [Inhibitor I, AdoC(β-Ala )2AlaArg6] here?
Answer: 4.3 ± 0.3 µM

Question: What about the IC50 (protein kinase CK2) of the same compound?
Answer: > 30 µM

Question: For NC(N)=NCCC[C@H](NC(=O)[C@H](CCCN=C(N)N)NC(=O)[C@H](CCCN=C(N)N)NC(=O)[C@H](CCCN=C(N)N)NC(=O)[C@H](CCCN=C(N)N)NC(=O)[C@@H](N)CCCN=C(N)N)C(=O)O [Arg6], which Ki (Protein Kinase A [2]) is on record?
Answer: 29500 nM

Question: What does the source list for C[C@H](NC(=O)[C@@H](N)CNC(=O)[C@@H](N)CNC(=O)[C@H]1O[C@@H](n2cnc3c(N)ncnc32)[C@H](O)[C@@H]1O)C(=O)N[C@@H](CCCNC(=N)N)C(=O)N[C@@H](CCCNC(=N)N)C(=O)N[C@@H](CCCNC(=N)N)C(=O)N[C@@H](CCCNC(=N)N)C(=O)N[C@@H](CCCNC(=N)N)C(=O)N[C@@H](CCCNC(=N)N)C(=O)O [Inhibitor II, AdoC(Dpr)2AlaArg6] (H-[Dap](X1)ARRRRRR-OH; C-terminus assumed)?
Answer: IC50 [3]: 31 ± 3 µM; IC50 (protein kinase CK1): 5.6 ± 0.4 µM

Question: Which results are given for C[C@H](NC(=O)C[C@H](NC(=O)C[C@H](NC(=O)[C@H]1O[C@@H](n2cnc3c(N)ncnc32)[C@H](O)[C@@H]1O)C(=O)O)C(=O)O)C(=O)N[C@@H](CCCNC(=N)N)C(=O)N[C@@H](CCCNC(=N)N)C(=O)N[C@@H](CCCNC(=N)N)C(=O)N[C@@H](CCCNC(=N)N)C(=O)N[C@@H](CCCNC(=N)N)C(=O)N[C@@H](CCCNC(=N)N)C(=O)O [Inhibitor III, AdoC(β-Asp)2AlaArg6] ({Adenosine(5'-uronoyl)-βAsp-βAsp}-ARRRRRR-OH; C-terminus assumed)?
Answer: IC50 [3]: > 50 µM; IC50 (protein kinase CK1): > 30 µM; IC50 [4]: 27 ± 2 µM

Question: With Nc1ncnc2c1ncn2[C@@H]1O[C@H](CO)[C@@H](O)[C@H]1O [Adenosine] as the compound, how does the Ki (Protein Kinase C) read?
Answer: 43200 nM

Question: What about the Ki (Protein Kinase A [5]) of the same compound?
Answer: 43100 nM

Question: Which IC50 [1] does the source give for N=C(N)NCCC[C@H](NC(=O)[C@H](CCCNC(=N)N)NC(=O)[C@H](CCCNC(=N)N)NC(=O)[C@H](CCCNC(=N)N)NC(=O)[C@H](CCCNC(=N)N)NC(=O)[C@H](CCCNC(=N)N)NC(=O)CCCNC(=O)[C@H]1O[C@@H](n2cnc3c(N)ncnc32)[C@H](O)[C@@H]1O)C(=O)O [Inhibitor VI, AdoC(GABA)Arg6] here?
Answer: 1.3 ± 0.2 µM

Question: What about the IC50 (protein kinase CK2) of the same compound?
Answer: > 30 µM

Question: For CC(=O)NCCCCCC(=O)N[C@@H](CCCN=C(N)N)C(=O)N[C@@H](CCCNC(=N)N)C(=O)N[C@@H](CCCNC(=N)N)C(=O)N[C@@H](CCCNC(=N)N)C(=O)N[C@@H](CCCNC(=N)N)C(=O)N[C@@H](CCCN=C(N)N)C(=O)O [Ac(amino-hexanoic acid)Arg6, Ac(Ahx)Arg6], which Ki (Protein Kinase A [2]) is on record?
Answer: 27900 nM

Question: Which “IC50 (µM) CK2” value (protein kinase CK2) does the source give for N=C(N)NCCC[C@H](NC(=O)[C@H](CCCNC(=N)N)NC(=O)[C@H](CCCNC(=N)N)NC(=O)[C@H](CCCNC(=N)N)NC(=O)[C@H](CCCNC(=N)N)NC(=O)[C@H](CCCNC(=N)N)NC(=O)CCCCCCCCCCNC(=O)[C@H]1O[C@@H](n2cnc3c(N)ncnc32)[C@H](O)[C@@H]1O)C(=O)O [Inhibitor IX, AdoC(Aun)Arg6] here?
Answer: n. i.^f)

Question: With N=C(N)NCCC[C@H](NC(=O)[C@H](CCCNC(=N)N)NC(=O)[C@H](CCCNC(=N)N)NC(=O)[C@H](CCCNC(=N)N)NC(=O)[C@H](CCCNC(=N)N)NC(=O)[C@H](CCCNC(=N)N)NC(=O)CCCCCNC(=O)[C@H]1O[C@@H](n2cnc3c(N)ncnc32)[C@H](O)[C@@H]1O)C(=O)O [Inhibitor VII, AdoC(Ahx)Arg6] as the compound, how does the IC50 [1] read?
Answer: 0.12 ± 0.02 µM

Question: What about the Ki (Protein Kinase A [2]) of the same compound?
Answer: 40.1 nM

Question: And the IC50 (protein kinase CK2)?
Answer: > 30 µM
